Biological target: Cell division control protein 42 homolog (Homo sapiens, UniProt P60953)
Test: inhibition of fluorescent GTP binding to wildtype Cdc42 – biochemical, pyrazoline analogs, multiplex bead flow cytometry, Ki, SAR follow-up (AID 2019)
[1] = inactive by the depositor's call

Chain of Cell division control protein 42 homolog (P60953 whole entry): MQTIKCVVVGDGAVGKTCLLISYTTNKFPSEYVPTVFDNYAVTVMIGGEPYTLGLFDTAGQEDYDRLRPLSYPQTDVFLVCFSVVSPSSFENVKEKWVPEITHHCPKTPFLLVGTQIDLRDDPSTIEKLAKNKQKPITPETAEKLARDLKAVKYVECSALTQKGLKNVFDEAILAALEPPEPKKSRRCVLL

SMILES | EC50 [1] [µM] | EC50 [µM]
Cc1onc(-c2ccccc2)c1-c1ccc(S(N)(=O)=O)cc1 | 30 | 
O=[N+]([O-])c1ccc([N+]2=N[C-](c3ccccc3)CC2c2ccccc2)cc1 (stereo not given) | 30 | 
Brc1ccc(N2N=C(c3ccccc3)CC2c2ccccc2)cc1 (stereo not given) | 30 | 
COc1ccccc1C1CC(c2ccccc2)=NN1c1ccccc1 (stereo not given) | 30 | 
Clc1cccc(N2N=C(c3ccccc3)CC2c2ccccc2)c1 (stereo not given) | 30 | 
Clc1ccc(N2N=C(c3ccccc3)CC2c2ccccc2)cc1 (stereo not given) | 30 | 
CC(=O)Oc1ccc(C2=NN(c3ccccc3)C(c3ccccc3)C2)cc1 (stereo not given) | 30 | 
O=C(O)c1ccc(N2N=C(c3ccccc3)CC2c2ccccc2)cc1 (stereo not given) | 30 | 
COc1ccc(C2=NN(c3ccccc3)C(c3ccccc3C(F)(F)F)C2)cc1 (stereo not given) | 34.4 | 
O=S(=O)(c1ccc(N2N=C(c3ccccc3)CC2c2ccccc2)cc1)C(F)F (stereo not given) | 0.231 | 
NS(=O)(=O)c1ccc(N2N=C(c3ccc(Cl)cc3)CC2c2ccccc2)cc1 (stereo not given) |  | 3.32
CCc1ccc(C2=NN(c3ccc(S(N)(=O)=O)cc3)C(c3ccc(F)cc3)C2)cc1 (stereo not given) | 30 | 
CN(C)c1ccc(C2C[C-](c3ccccc3)N=[N+]2c2ccc([N+](=O)[O-])cc2)cc1 (stereo not given) | 30 | 
COc1ccc(C2CC(c3ccc(F)cc3)=NN2c2cccc(F)c2)cc1OC (stereo not given) |  | 21
COc1ccc(C2CC(c3ccccc3)=NN2c2ccc(Cl)c(C(=O)O)c2)cc1 (stereo not given) | 30 | 
COc1ccc(C2CC(c3ccc(Cl)cc3)=NN2c2ccc(S(N)(=O)=O)cc2)cc1 (stereo not given) |  | 2.3
COc1ccc(C2CC(c3ccc(C)cc3)=NN2c2ccc(S(N)(=O)=O)cc2)cc1 (stereo not given) |  | 2.21
COc1ccc(C2CC(c3cccc(C(F)(F)F)c3)=NN2c2ccc(S(N)(=O)=O)cc2)cc1 (stereo not given) |  | 3.11
COc1ccc(C2CC(c3cccc(N(C)C)c3)=NN2c2ccc(S(N)(=O)=O)cc2)cc1 (stereo not given) | 30 | 
COc1ccc(C2CC(c3cccnc3)=NN2c2ccc(S(N)(=O)=O)cc2)cc1 (stereo not given) |  | 9.51
COc1ccc(C2CC(c3ccncc3)=NN2c2ccc(S(N)(=O)=O)cc2)cc1 (stereo not given) | 30 | 
Fc1ccccc1C1CC(c2ccc(Br)cc2)=NN1c1ccc(Br)cc1 (stereo not given) [2,5-bis(4-bromophenyl)-3-(2-fluorophenyl)-3,4-dihydropyrazole] | 30 | 
COc1ccc(C2CC(c3ccc(F)cc3)=NN2c2cc(Cl)ccc2Cl)cc1 (stereo not given) [2-(2,5-dichlorophenyl)-5-(4-fluorophenyl)-3-(4-methoxyphenyl)-3,4-dihydropyrazole] | 30 | 

SMILES | EC50 [1] [µM] | EC50 [µM]
COc1ccc(C2=NN(c3ccc(Cl)c(Cl)c3)C(c3ccc(OC)cc3)C2)cc1 (stereo not given) [2-(3,4-dichlorophenyl)-3,5-bis(4-methoxyphenyl)-3,4-dihydropyrazole] | 30 | 
Fc1ccc(C2=NN(c3cccc(Br)c3)C(c3ccccc3)C2)cc1 (stereo not given) [2-(3-bromophenyl)-5-(4-fluorophenyl)-3-phenyl-3,4-dihydropyrazole] | 30 | 
COc1ccc(C2=NN(c3cccc(F)c3)C(c3ccc(OC)cc3)C2)cc1 (stereo not given) [2-(3-fluorophenyl)-3,5-bis(4-methoxyphenyl)-3,4-dihydropyrazole] | 30 | 
COc1ccc(C2CC(c3ccccc3)=NN2c2ccc(Cl)c(C(=O)O)c2)cc1OC (stereo not given) [2-chloro-5-[3-(3,4-dimethoxyphenyl)-5-phenyl-3,4-dihydropyrazol-2-yl]benzoic acid] | 30 | 
COc1ccc(C2=NN(c3cccc(F)c3)C(c3ccc(Cl)cc3)C2)cc1 (stereo not given) [3-(4-chlorophenyl)-2-(3-fluorophenyl)-5-(4-methoxyphenyl)-3,4-dihydropyrazole] | 30 | 
COc1ccc(C2C[C-](c3ccccc3)N=[N+]2c2ccc([N+](=O)[O-])cc2)cc1 (stereo not given) [3-(4-methoxyphenyl)-2-(4-nitrophenyl)-5-phenyl-3,4-dihydropyrazole] | 30 | 
COc1ccc(C2CC(c3ccccc3)=NN2c2cccc(S(N)(=O)=O)c2)cc1 (stereo not given) [3-[3-(4-methoxyphenyl)-5-phenyl-3,4-dihydropyrazol-2-yl]benzenesulfonamide] | 30 | 
CN(C)c1ccc(C2CC(c3ccccc3)=NN2c2ccccc2)cc1 (stereo not given) [4-(2,5-diphenyl-3,4-dihydropyrazol-3-yl)-N,N-dimethylaniline] | 30 | 
NS(=O)(=O)c1ccc(N2N=C(c3ccccc3)CC2c2ccccc2)cc1 (stereo not given) [4-(3,5-diphenyl-3,4-dihydropyrazol-2-yl)benzenesulfonamide] | 30 | 
NS(=O)(=O)c1ccc(N2N=C(c3ccccc3)CC2c2ccccc2Br)cc1 (stereo not given) [4-[3-(2-bromophenyl)-5-phenyl-3,4-dihydropyrazol-2-yl]benzenesulfonamide] | 30 | 
NS(=O)(=O)c1ccc(N2N=C(c3ccccc3)CC2c2ccc(Cl)cc2)cc1 (stereo not given) [4-[3-(4-chlorophenyl)-5-phenyl-3,4-dihydropyrazol-2-yl]benzenesulfonamide] |  | 2.76
COc1ccc(C2CC(c3ccc(C(F)(F)F)cc3)=NN2c2ccc(S(N)(=O)=O)cc2)cc1 (stereo not given) [4-[3-(4-methoxyphenyl)-5-[4-(trifluoromethyl)phenyl]-3,4-dihydropyrazol-2-yl]benzenesulfonamide] | 30 | 
COc1ccc(C2CC(C)=NN2c2ccc(S(N)(=O)=O)cc2)cc1 (stereo not given) [4-[3-(4-methoxyphenyl)-5-methyl-3,4-dihydropyrazol-2-yl]benzenesulfonamide] | 30 | 
COc1ccc(C2CC(c3ccccc3Cl)=NN2c2ccc(S(N)(=O)=O)cc2)cc1 (stereo not given) [4-[5-(2-chlorophenyl)-3-(4-methoxyphenyl)-3,4-dihydropyrazol-2-yl]benzenesulfonamide] |  | 2.59
COc1ccc(C2CC(c3cccc(F)c3)=NN2c2ccc(S(N)(=O)=O)cc2)cc1 (stereo not given) [4-[5-(3-fluorophenyl)-3-(4-methoxyphenyl)-3,4-dihydropyrazol-2-yl]benzenesulfonamide] |  | 2.86
COc1ccc(C2CC(c3cccc(OC)c3)=NN2c2ccc(S(N)(=O)=O)cc2)cc1 (stereo not given) [4-[5-(3-methoxyphenyl)-3-(4-methoxyphenyl)-3,4-dihydropyrazol-2-yl]benzenesulfonamide] |  | 1.46
NS(=O)(=O)c1ccc(N2N=C(c3ccc(Br)cc3)CC2c2ccc(F)cc2)cc1 (stereo not given) [4-[5-(4-bromophenyl)-3-(4-fluorophenyl)-3,4-dihydropyrazol-2-yl]benzenesulfonamide] | 30 | 
COc1ccc(C2CC(c3ccc(F)cc3)=NN2c2ccc(S(N)(=O)=O)cc2)cc1 (stereo not given) [4-[5-(4-fluorophenyl)-3-(4-methoxyphenyl)-3,4-dihydropyrazol-2-yl]benzenesulfonamide] |  | 4.26
COc1ccc(-c2cc(-c3ccccc3)nn2-c2ccc(S(N)(=O)=O)cc2)cc1 [4-[5-(4-methoxyphenyl)-3-phenylpyrazol-1-yl]benzenesulfonamide] | 5.05 | 
COc1ccc(C2CC(C3CCCCC3)=NN2c2ccc(S(N)(=O)=O)cc2)cc1 (stereo not given) [4-[5-cyclohexyl-3-(4-methoxyphenyl)-3,4-dihydropyrazol-2-yl]benzenesulfonamide] | 30 | 
O=S(=O)(c1ccc(N2N=C(c3ccc(Br)cc3)CC2c2ccccc2)cc1)C(F)F (stereo not given) [5-(4-bromophenyl)-2-[4-(difluoromethylsulfonyl)phenyl]-3-phenyl-3,4-dihydropyrazole] | 30 | 
FC(F)(F)c1ccccc1C1CC(c2ccc(Br)cc2)=NN1c1ccccc1 (stereo not given) [5-(4-bromophenyl)-2-phenyl-3-[2-(trifluoromethyl)phenyl]-3,4-dihydropyrazole] | 30 | 
